# In patent US20200345013A1, “ANTI-ADHERENT BOTANICAL COMPOSITIONS” (priority 2014, published 2020):
# Tests used:
# S. aureus = experiment: High Throughput Anti-adherent Test, polystyrene, one-hour adhesion, S. aureus; format: cell-based, Staphylococcus aureus; conditions: agent 5% in water; percentage of microbes that remain attached to treated polystyrene; low = stronger anti-adherent effect; average +/- SD, n = 2
# Text: (§1) The botanical extracts listed in Table 3 were initially screened for their effect against microbial adhesion using the High Throughput Anti-adherent Test Method described below. The effect of the botanical filtrates as the percentage of control-corrected A490 is shown. For bacterial strains, the corrected A490 were all less than 20% of the untreated control. For C. albicans, the corrected A490 of the botanical filtrates were less than 70% of the untreated control. The lower percentage value indicates a stronger inhibitory effect.
# (§2) II. High Throughput Anti-Adherence Test Method
# (§3) This test method specifies the operational parameters required to grow and or prevent the formation of bacterial attachment using a high throughput screening assay. The assay device consists of a plastic lid with ninety-six (96) pegs and a corresponding receiver plate with ninety-six (96) individual wells that have a maximum 200 μL working volume. Biofilm is established on the pegs under static batch conditions (i.e., no flow of nutrients into or out of an individual well). • 1. […]
# C. albicans = experiment: High Throughput Anti-adherent Test, polystyrene, one-hour adhesion, C. albicans; format: cell-based, Candida albicans; conditions: agent 5% in water; percentage of microbes that remain attached to treated polystyrene; low = stronger anti-adherent effect; bracketed = adherent effect; * = single measurement, else n = 2
# Text: as §1, §2, §3
# [1] = system: Staphylococcus aureus CICC 10384 (ATCC 6538P); experiment: Screening anti-adhesion effect on porcine skin, S. aureus; format: cell-based
# Description: Preparation of Bacterial Cell Suspensions • 1. Klebsiella pneumonia CICC 21519 (ATCC 4352) and Staphylococcus aureus CICC 10384 (ATCC 6538P) were purchased from China Center of Industrial Culture Collection. • 2. Stock culture of each species was streaked onto TSA plate (OXOID, […], England) and incubated at 37° C. overnight. • 3. Single colonies were subcultured in TSB (OXOID, […], England) and incubated 37° C., 200 rpm overnight. • 4. Dilutions of overnight cultures in PBS buffer were used for the screening.
# Screening the Anti-Adhesion Effect of Botanicals/Compounds on Porcine Skin • 1. Porcine skins were aseptically cut to squares of 2×2 cm, and each was placed in a sterile Petri dish (CITOTEST LABWARE MANUFACTURING CO., LTD, Haimen, Jiangsu). • 2. Aliquots (100 μL) of botanical/compounds suspensions were applied to porcine skins, three replicates. • 3. Skins were allowed to air dry for 2 hours at ˜50% relative humidity. • 4. Inocula (100 μL) were applied to the porcine skin, and incubated at 37° C. for 2 hours. • 5. […] After incubation, colonies on plates were counted. Reduction (%) of colony forming unit (CFU) from the average counts on untreated skin was calculated. • 9. […] After incubation, plaques on plates were counted. • d. Reduction (%) of plaque forming unit (PFU) from the average counts on untreated skin was calculated.
# [2] = system: Klebsiella pneumonia CICC 21519 (ATCC 4352); experiment: Screening anti-adhesion effect on porcine skin, K. pneumoniae; format: cell-based, Klebsiella pneumoniae; conditions: two-hour adhesion time, Table 2
# Description: Klebsiella pneumonia CICC 21519 (ATCC 4352) and Staphylococcus aureus CICC 10384 (ATCC 6538P) were purchased from China Center of Industrial Culture Collection. • 2. […] Dilutions of overnight cultures in PBS buffer were used for the screening.
# Aliquots (100 μL) of botanical/compounds suspensions were applied to porcine skins, three replicates. • 3. Skins were allowed to air dry for 2 hours at ˜50% relative humidity. • 4. Inocula (100 μL) were applied to the porcine skin, and incubated at 37° C. for 2 hours. • 5. The skins were washed three times by applying 5 ml of PBS+0.01% Tween 80 onto the skins and then removing the liquid by pipetting. • 6. […] Microbial cells were enumerated by spread plate method. • a. […] For S. aureus and K. pneumoniae, the suspension and dilutions were plated onto TSA, and incubated at 37° C. for 1 day. • 8. After incubation, colonies on plates were counted. Reduction (%) of colony forming unit (CFU) from the average counts on untreated skin was calculated. • 9.
# K. pneumoniae = experiment: High Throughput Anti-adherent Test, polystyrene, one-hour adhesion, K. pneumoniae; format: cell-based, Klebsiella pneumoniae; conditions: agent 5% in water; percentage of microbes that remain attached to treated polystyrene; low = stronger anti-adherent effect; average +/- SD, n = 2
# Text: as §1, §2, §3
# C. albicans SC5314 = experiment: Screening anti-adhesion effect on porcine skin, C. albicans; format: cell-based, Candida albicans; conditions: agent 5% in water, 2 h adhesion, average +/- SD, n = 2, positive = anti-adherent
# Description: Preparation of C. albicans Cell Suspension • 1. Single cell suspension of C. albicans SC5314 was prepared as follows. Stock culture of C. albicans SC5314 was streaked onto YPD agar (YPDA) and incubated at 30° C. overnight. • 2. Single colonies were subcultured in YPD broth (YPDB) and incubated 30° C., 200 rpm overnight. • 3. Overnight culture in YPDB was subcultured in YPD broth again and incubated 30° C., 200 rpm for 48 hours. • 4. Cells were collected by centrifugation (4000×g, 10 minutes) at 4° C., washed three times with sterile water, and then resuspended in sterile water a final concentration of 10^9 CFU/mL. • 5. The suspension were stored at 4° C. at least 1 day, then subcultured into YPDB to a final concentration of 10^6 CFU/mL. • 6. After 48 hours incubation, cell suspension was examined under microscope for single cell percentage. • 7. […]
# Screening the Anti-Adhesion Effect of Botanicals/Compounds on Porcine Skin • 1. […] After incubation, colonies on plates were counted. Reduction (%) of colony forming unit (CFU) from the average counts on untreated skin was calculated. • 9. […] After incubation, plaques on plates were counted. • d. Reduction (%) of plaque forming unit (PFU) from the average counts on untreated skin was calculated.
smiles,measurement,setting,value
Oc1ccc(C=Cc2cc(O)cc(O)c2)cc1 [Resveratrol],"Reduction of Adherent Cells (%) from Polystyrene Control (One-Hour Adhesion Time), S. aureus",S. aureus,8.0 ± 9.9%
same,"Reduction of Adherent Cells (%) from Polystyrene Control (One-Hour Adhesion Time), C. albicans",C. albicans,25.5 ± 4.9%
same,"Reduction of Adherent Cells (%) from Porcine Skin Control (Two-Hour Adhesion Time), S. aureus","[1]; agent 5% in water, 2 h adhesion, average +/- SD, n = 2, positive = anti-adherent",−4.2 ± 19.1%
same,"Anti-adherence on porcine skin in words, S. aureus","[1]; two-hour adhesion time, Table 2",failed to demonstrate anti-adherence
same,"Anti-adherence on porcine skin in words, K. pneumonia",[2],failed to demonstrate anti-adherence
same,"Reduction of Adherent Cells (%) from Polystyrene Control (One-Hour Adhesion Time), K. pneumoniae",K. pneumoniae,7.0 ± 2.8%
same,"Reduction of Adherent Cells (%) from Porcine Skin Control (Two-Hour Adhesion Time), C. albicans",C. albicans SC5314,29.8 ± 11.2%
